For the data set the following is noted: instrument: TW, calibrated with polyalanine and drug standards.

Data on 63 compounds can be found in the C3SDB collision cross section collection.

SMILES strings stand for the structures. Where “and” joins values, the source holds several entries; their conditions need not be identical. Equal values may be shown once.

Regarding `Nc1ccc(C(=O)NCC(=O)O)cc1` [AMINOHIPPURIC ACID], the “collision cross section (N2)” value ([M+H]+) amounted to 155.3 Å².
Still for that read-out and setting: the value for `Nc1nccs1` [AMINOTHIAZOLE] was 117.2 Å²; that for `Clc1ccc2c(c1)C(N1CCNCC1)=Nc1ccccc1O2` [AMOXAPINE] was 171.2 Å²; that for `CC1(C)S[C@@H]2[C@H](NC(=O)[C@H](N)c3ccc(O)cc3)C(=O)N2[C@H]1C(=O)O` [AMOXICILLIN] was 187.4 Å².
`COc1cc(NS(C)(=O)=O)ccc1Nc1c2ccccc2nc2ccccc12` [AMSACRINE]: the “collision cross section (N2)” value ([M+H]+) worked out at 193.1 Å².
For the compound `COc1ccc([C@@H](C)C(=O)c2ccc(O)cc2O)cc1` [ANGOLENSIN (R)], the “collision cross section (N2)” value ([M+H]+) is 162 Å².
Same read-out and setting: the value for `COc1ccc(C(=O)N2CCCC2=O)cc1` [ANIRACETAM] was 146.6 Å²; that for `O=C1c2c(O)cccc2Cc2cccc(O)c21` [ANTHRALIN] was 142.6 Å².
On to `COc1cc(O)cc(OC)c1OC` [ANTIAROL], for which, for the setting “[M+H]+”, the “collision cross section (N2)” value was 133.5 Å².
Same read-out and setting: to `Cc1cc(=O)n(-c2ccccc2)n1C` [ANTIPYRINE] belongs 137.8 Å²; to `COc1cc2c(cc1OC)-c1c(oc3cc(O)cc(O)c3c1=O)CO2` [APOTOXICAROL], 173.8 Å².
Consider `OC[C@H]1O[C@@H](Oc2ccc(O)cc2)[C@H](O)[C@@H](O)[C@@H]1O` [ARBUTIN], for which, for the setting “[M+Na]+”, the “collision cross section (N2)” value turned out to be 164.4 Å².
With `COc1cc(OC)c(OC)cc1C=O` [ASARYLALDEHYDE], the “collision cross section (N2)” value ([M+H]+) was 138.3 Å².
Consider `C[C@H]1[C@H](C)CC[C@]2(C(=O)O)CC[C@]3(C)C(=CC[C@@H]4[C@@]5(C)C[C@@H](O)[C@H](O)[C@@](C)(CO)[C@@H]5CC[C@]43C)[C@H]12` [ASIATIC ACID], for which the “collision cross section (N2)” value ([M+Na]+) was 233.5 Å².
Consider `CC(C)NCC(O)COc1ccc(CC(N)=O)cc1` (stereo not drawn) [ATENOLOL], for which, under “[M+H]+”, the “collision cross section (N2)” value is given as 159 Å².
Consider `O=C(O)C1=CC(=C(c2ccc(O)c(C(=O)O)c2)c2ccc(O)c(C(=O)O)c2)C=CC1=O` [AURIN TRICARBOXYLIC ACID], for which the “collision cross section (N2)” value ([M+H]+) is 197.6 Å².
Turning to `CC[C@H](C)[C@H]1O[C@]2(C=C[C@@H]1C)C[C@@H]1C[C@@H](C/C=C(\C)[C@@H](O[C@H]3C[C@H](OC)[C@@H](O[C@H]4C[C@H](OC)[C@@H](O)[C@H](C)O4)[C@H](C)O3)[C@@H](C)/C=C/C=C3\CO[C@@H]4[C@H](O)C(C)=C[C@@H](C(=O)O1)[C@]34O)O2` [Abamectin B1A], the “collision cross section (N2)” value ([M+Na]+) worked out at 290.5 Å².
On to `C/C(=C(\CCOP(=O)(O)O)SC(=O)c1ccccc1)N(C=O)Cc1cnc(C)nc1N` [BENFOTIAMINE], for which, for the setting “[M+H]+”, the “collision cross section (N2)” value amounted to 192.7 Å².
On to `CCCCCCCCCCCCCC[N+](C)(C)Cc1ccccc1` [BENZALKONIUM CHLORIDE C14], for which, for the setting “[M]+”, the “collision cross section (N2)” value is 205.7 Å².
On to `O=C(Nc1ccc(C(=O)O)c(O)c1)c1ccccc1` [BENZOYLPAS], for which the “collision cross section (N2)” value ([M+H]+) was 156.3 Å².
On the same count and under the same terms, the value for `COc1c(O)cc2c(c1O)[C@@H]1O[C@H](CO)[C@@H](O)[C@H](O)[C@H]1OC2=O` [BERGENIN] was 168.3 Å²; that for `CCCCC(=O)O[C@]1(C(=O)CO)[C@@H](C)C[C@H]2[C@@H]3CCC4=CC(=O)C=C[C@]4(C)[C@@]3(F)[C@@H](O)C[C@@]21C` [BETAMETHASONE VALERATE] was 214 Å²; that for `C[C@H]1C[C@H]2[C@@H]3CCC4=CC(=O)C=C[C@]4(C)[C@@]3(F)[C@@H](O)C[C@]2(C)[C@@]1(O)C(=O)CO` [BETAMETHASONE] was 186.7 Å².
Still for that read-out and setting: to `O=C(O)CCNC(=O)c1ccccc1` [BETAMIPRON] belongs 138.7 Å²; to `CC(C)(Oc1ccc(CCNC(=O)c2ccc(Cl)cc2)cc1)C(=O)O` [BEZAFIBRATE], 177.3 Å²; to `COc1ccc(-c2coc3cc(O)cc(O)c3c2=O)cc1` [BIOCHANIN A], 160.9 Å².
On the same count and under the same terms, to `OC(CCN1CCCCC1)(c1ccccc1)C1CC2C=CC1C2` (stereo not drawn) [BIPERIDEN] belongs 175.7 Å².
For `CC(C)(c1ccc(O)cc1)c1ccc(O)cc1` [BISPHENOL A], under “[M+H]+”, the “collision cross section (N2)” value amounted to 147.1 Å².
With `CC1(C)CC2C1CC[C@]1(CBr)CCC3C(CC(=O)O)C(=O)O[C@@]32C1` (stereo partly drawn) [BROMO-3-HYDROXY-4-(SUCCIN-2-YL)-CARYOLANE gamma-LACTONE], for the setting “[M+H]+”, the “collision cross section (N2)” value stood at 183.4 Å².
The same measure, in the same setting: the value for `COc1cc2c(cc1OC)[C@@]13CCN4CC5=CCO[C@H]6CC(=O)N2[C@H]1[C@H]6[C@H]5C[C@H]43` [BRUCINE] was 190.9 Å²; that for `CCOc1ccc(NC(=O)CC(C)O)cc1` (stereo not drawn) [BUCETIN] was 152.5 Å²; that for `CCCC(=O)Nc1ncnc2c1ncn2[C@@H]1O[C@@H]2COP(=O)(O)O[C@H]2[C@H]1OC(=O)CCC` [BUCLADESINE] was 215.3 Å².
Regarding `CCCCNc1cc(C(=O)O)cc(S(N)(=O)=O)c1Oc1ccccc1` [BUMETANIDE], for the setting “[M+H]+”, the “collision cross section (N2)” value stood at 185.1 Å².
On the same count and under the same terms, to `CC(NC(C)(C)C)C(=O)c1cccc(Cl)c1` (stereo not drawn) [BUPROPION] belongs 157.5 Å²; to `CCCCN(CCCC)CCCOC(=O)c1ccc(N)cc1` [BUTACAINE], 179 Å²; to `Clc1ccc(CCC(Cn2ccnc2)Sc2c(Cl)cccc2Cl)cc1` (stereo not drawn) [BUTOCONAZOLE], 186.5 Å².
Still for that read-out and setting: the value for `Cn1c(=O)c2c(ncn2C)n(C)c1=O` [CAFFEINE] was 136.9 Å².
On the same count and under the same terms, to `CCOc1nc2cccc(C(=O)OC(C)OC(=O)OC3CCCCC3)c2n1Cc1ccc(-c2ccccc2-c2nn[nH]n2)cc1` (stereo not drawn) [CANDESARTAN CILEXTIL] belongs 241.5 Å²; to `C[C@]12CCC(=O)C=C1C=C[C@@H]1[C@@H]2CC[C@@]2(C)[C@H]1CC[C@@]21CCC(=O)O1` [CANRENONE], 183 Å².
In the case of `COC(=O)C[C@H]1C(C)(C)C(=O)[C@@H]2CC3C4=CC(=O)O[C@@H](c5ccoc5)[C@]4(C)CCC3[C@@]1(C)C2=O` (stereo partly drawn) [CARAPIN], the “collision cross section (N2)” value ([M+H]+) turned out to be 206.1 Å².
Same read-out and setting: to `COC(=O)N=N/C=C1\C=[N+]([O-])c2ccccc2N1O` [CARBADOX] belongs 153.9 Å²; to `CCCC(C)(COC(N)=O)COC(=O)NC(C)C` (stereo not drawn) [CARISOPRODOL], 149.1 Å²; to `COc1ccccc1OCCNCC(O)COc1cccc2[nH]c3ccccc3c12` (stereo not drawn) [CARVEDILOL], 189.1 Å².
On the same count and under the same terms, the value for `COc1cc(OC)c2c(c1)O[C@H](c1ccc(OC)c(OC)c1)[C@@H](O)C2` [CATECHIN TETRAMETHYLETHER] was 174.4 Å²; that for `C[C@@H]1CC[C@H]2C(C)(C)[C@H]3C[C@@]12CC[C@@]3(C)O` [CEDROL] was 145.9 Å²; that for `CC1=C(O)C(=O)C=C2C1=CC=C1[C@@]2(C)CC[C@@]2(C)[C@@H]3C[C@](C)(C(=O)O)CC[C@]3(C)CC[C@]12C` [CELASTROL] was 205.6 Å².
`Cc1ccc(-c2cc(C(F)(F)F)nn2-c2ccc(S(N)(=O)=O)cc2)cc1` [CELECOXIB]: the “collision cross section (N2)” value ([M+H]+) is given as 186.1 Å².
Still for that read-out and setting: the value for `CC1=C(C(=O)O)N2C(=O)[C@@H](NC(=O)[C@H](N)c3ccccc3)[C@H]2SC1` [CEPHALEXIN] was 178.5 Å².
The same measure, in the same setting: the value for `O=C(O)CCCc1ccc(N(CCCl)CCCl)cc1` [CHLORAMBUCIL] was 168.7 Å²; that for `CN1C(=O)CCS(=O)(=O)C1c1ccc(Cl)cc1` (stereo not drawn) [CHLORMEZANONE] was 158.2 Å²; that for `CC(=O)Oc1ccc(Cl)c2cccnc12` [CHLOROACETOXYQUINOLINE] was 141.1 Å².
Same read-out and setting: the value for `CN(C)CCCN1c2ccccc2Sc2ccc(Cl)cc21` [CHLORPROMAZINE] was 169.8 Å²; that for `CC(C)CCCC(C)C1CCC2C3CCC4CC(=O)CCC4(C)C3CCC12C` (stereo not drawn) [CHOLESTAN-3-ONE] was 187.2 Å².
As to `COC(=O)CC[C@@H](C)[C@H]1CC[C@H]2[C@@H]3[C@H](O)C[C@@H]4C[C@H](O)CC[C@]4(C)[C@H]3C[C@H](O)[C@]12C` [CHOLIC ACID, METHYL ESTER], the “collision cross section (N2)” value ([M+Na]+) amounted to 198.1 Å².
Regarding `O=c1cc(-c2ccccc2)oc2cc(O)cc(O)c12` [CHRYSIN], the “collision cross section (N2)” value ([M+H]+) is given as 151.7 Å².
As to `COC(=O)C[C@H]1C2(C)CC34OC5(C)O[C@@]6([C@H](OC)C(OC(=O)C(C)C)[C@]7(C)C(/C(=C(/OC)C(C)C)C(=O)O[C@H]7c7ccoc7)[C@@]6(O5)[C@H](OC)[C@@]3(OC)C2OC(C)=O)[C@]14C` (stereo partly drawn) [CHUKRASIN METHYL ETHER], the “collision cross section (N2)” value ([M+H-H2O]+) is 254.2 Å².
On to `CN=C(NC#N)NCCSCc1nc[nH]c1C` [CIMETIDINE], for which the “collision cross section (N2)” value ([M+H]+) is on record as 155.7 Å².
On the same count and under the same terms, to `C=C[C@H]1CN2CC[C@H]1C[C@@H]2[C@@H](O)c1ccnc2ccccc12` [CINCHONINE] belongs 166.3 Å²; to `O=C(O)c1cn(C2CC2)c2cc(N3CCNCC3)c(F)cc2c1=O` [CIPROFLOXACIN], 185.3 Å² and 173.3 Å²; to `CN(C)CCCC1(c2ccc(F)cc2)OCc2cc(C#N)ccc21` (stereo not drawn) [CITALOPRAM], 178.9 Å².
Same read-out and setting: the value for `CC1=C2C(=CO[C@H](C)[C@H]2C)C(=O)C(C(=O)O)=C1O` [CITRININ] was 150.2 Å².
Still for that read-out and setting: the value for `CC(C)(Oc1ccc(Cl)cc1)C(=O)O` [CLOFIBRIC ACID] was 146.6 Å².
As for `C=C[C@@]1(C)CC(=O)[C@]2(O)[C@@]3(C)[C@@H](O)CCC(C)(C)[C@@H]3[C@H](O)[C@H](OC(C)=O)[C@@]2(C)O1` [COLFORSIN], the “collision cross section (N2)” value ([M+Na]+) came to 191.9 Å².
